Like-named read-outs stand apart in the source and are kept apart here.
Assays:
[1] = tested on: CCL17 secretion in peripheral human whole blood; assay: Human Whole Blood (HWB) CCL17 TR-FRET Assay (IL-13 stimulated CCL17 secretion); assay type: cell-based; conditions: Homo sapiens, 48 h
Outline: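 Measured here: CCL17 in serum by TR-FRET (665/615 nm) after overnight (16 h) room-temperature detection. The blood, heparinized and compound-treated for 2 h, received IL-13 at 10 ng/mL final and was cultured 48 h at 37 °C.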

STAT6 = biological target: T1, STAT6 (Homo sapiens, UniProt P42226); assay: STAT6 Reporter Luciferase Assay (IL-13 stimulated HaCaT keratinocyte NanoLuc reporter cells); assay type: cell-based; conditions: read-out: Reporter EC50
T1 construct: stably transfected HaCaT keratinocyte cell line, which expresses NanoLuc luciferase reporter gene under the transcriptional control of the STAT6 responsive promoter; endogenous in cells; host or cells: HaCaT keratinocyte reporter cell line (stably transfected with a NanoLuc reporter)
T1 sequence (P42226 1-847): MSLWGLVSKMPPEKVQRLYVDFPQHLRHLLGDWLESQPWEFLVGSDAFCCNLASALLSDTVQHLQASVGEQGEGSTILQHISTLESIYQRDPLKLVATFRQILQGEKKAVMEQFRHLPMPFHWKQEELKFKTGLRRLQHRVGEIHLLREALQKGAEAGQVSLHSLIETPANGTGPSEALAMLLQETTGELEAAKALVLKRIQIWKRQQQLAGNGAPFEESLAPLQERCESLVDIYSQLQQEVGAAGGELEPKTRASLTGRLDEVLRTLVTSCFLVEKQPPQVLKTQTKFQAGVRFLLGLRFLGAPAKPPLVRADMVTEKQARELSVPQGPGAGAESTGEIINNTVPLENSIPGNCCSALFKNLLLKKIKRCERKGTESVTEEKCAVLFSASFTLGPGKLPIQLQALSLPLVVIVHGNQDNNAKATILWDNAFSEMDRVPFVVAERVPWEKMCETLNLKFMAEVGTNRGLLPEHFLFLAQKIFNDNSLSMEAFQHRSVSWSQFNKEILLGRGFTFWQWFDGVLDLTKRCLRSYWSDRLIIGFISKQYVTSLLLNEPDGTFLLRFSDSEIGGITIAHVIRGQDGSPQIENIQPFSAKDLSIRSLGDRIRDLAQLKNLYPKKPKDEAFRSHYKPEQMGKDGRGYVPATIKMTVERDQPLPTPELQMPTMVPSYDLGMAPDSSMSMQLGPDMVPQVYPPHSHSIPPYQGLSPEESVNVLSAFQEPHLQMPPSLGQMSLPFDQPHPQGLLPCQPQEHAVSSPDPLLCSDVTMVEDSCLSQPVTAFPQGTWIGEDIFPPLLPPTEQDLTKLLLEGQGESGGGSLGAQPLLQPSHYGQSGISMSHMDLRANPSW
Outline: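 Stably transfected HaCaT cells carrying NanoLuc under the STAT6-responsive IL-13Ra2 promoter were pre-treated with compound (11-point, 4-fold series, duplicate) for 2 h at 37 °C, then stimulated with 0.12 nM IL-13 for 4 h. Nano-Glo luminescence was read after 15 min.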

[2] = human whole blood, IL-13 stimulated
[3] = IL-13 stimulated HaCaT STAT6 NanoLuc reporter cells

Compound	IC50 ([1]; inhibition of CCL17 secretion in human whole blood, 10 ng/mL IL13, 48 hours) [nM]	EC50 (STAT6; STAT6 NanoLuc luciferase reporter, IL-13 stimulated HaCaT keratinocyte cells) [nM]	IC50 [1, 2] [nM]	EC50 (STAT6; [3]) [nM]
CC(C)n1nc(C(=O)NCc2ccc(NC(=O)N(C)CC3COCCO3)cc2)c2c1CCN(c1ccc(C(=O)N(C)C)cn1)C2 (racemic) [Example 176, rac-(R)-N-(4-(3-((1,4-dioxan-2-yl)methyl)-3-methylureido)benzyl)-5-(5-(dimethylcarbamoyl)pyridin-2-yl)-1-isopropyl-4,5,6,7-tetrahydro-1H-pyrazolo[4,3-c]pyridine-3-carboxamide]	51	12	–	–
CCn1nc2c(c1C(=O)NCc1ccc(NC(=O)N(C)C)cc1)CN(c1ccc(C(=O)N(C)C)cn1)[C@H](C)[C@@H]2C (racemic) [Example 314, rac-(6R,7S)-5-(5-(dimethylcarbamoyl)pyridin-2-yl)-N-(4-(3,3-dimethylureido)benzyl)-2-ethyl-6,7-dimethyl-4,5,6,7-tetrahydro-2H-pyrazolo[4,3-c]pyridine-3-carboxamide]	–	–	6850	1070
CC(C)n1nc(C(=O)NCc2ccc(NC(=O)N(C)C)cc2)c2c1CCN(c1ccc(C3CCCO3)cn1)C2 (racemic) [Example 322, rac-(R)—N-(4-(3,3-Dimethylureido)benzyl)-1-isopropyl-5-(5-(tetrahydrofuran-2-yl)pyridin-2-yl)-4,5,6,7-tetrahydro-1H-pyrazolo[4,3-c]pyridine-3-carboxamide]	–	–	1350	77
CC(C)n1nc(C(=O)NCc2ccc(NC(=O)N(C)C)cc2)c2c1CCN(c1ccc(C3CCCCO3)cn1)C2 (racemic) [Example 339, rac-(R)-N-(4-(3,3-dimethylureido)benzyl)-1-isopropyl-5-(5-(tetrahydro-2H-pyran-2-yl)pyridin-2-yl)-4,5,6,7-tetrahydro-1H-pyrazolo[4,3-c]pyridine-3-carboxamide]	–	–	> 23100	6550
CC(C)n1nc(C(=O)NCc2ccc(NC(=O)N(C)C)cc2)c2c1CCN(c1ccc(C3CCOC3)cn1)C2 (racemic) [Example 345, rac-(R)-N-(4-(3,3-dimethylureido)benzyl)-1-isopropyl-5-(5-(tetrahydrofuran-3-yl)pyridin-2-yl)-4,5,6,7-tetrahydro-1H-pyrazolo[4,3-c]pyridine-3-carboxamide]	–	–	> 30000	> 2630
CC(CO)n1nc(C(=O)NCc2ccc(NC(=O)N(C)C)cc2)c2c1CCN(c1ccc(C(=O)N(C)C)cn1)C2 (racemic) [Example 351, rac-(R)-5-(5-(dimethylcarbamoyl)pyridin-2-yl)-N-(4-(3,3-dimethylureido)benzyl)-1-(1-hydroxypropan-2-yl)-4,5,6,7-tetrahydro-1H-pyrazolo[4,3-c]pyridine-3-carboxamide]	–	–	129	73
CC(CC#N)n1nc(C(=O)NCc2ccc(NC(=O)N(C)C)cc2)c2c1CCN(c1ccc(C(=O)N(C)C)cn1)C2 (racemic) [Example 358, rac-(R)-1-(1-cyanopropan-2-yl)-5-(5-(dimethylcarbamoyl)pyridin-2-yl)-N-(4-(3,3-dimethylureido)benzyl)-4,5,6,7-tetrahydro-1H-pyrazolo[4,3-c]pyridine-3-carboxamide]	–	–	112	51

Results, then the compound that gave them:

IC50 ([1]; inhibition of CCL17 secretion in human whole blood, 10 ng/mL IL13, 48 hours) [nM]	EC50 (STAT6; STAT6 NanoLuc luciferase reporter, IL-13 stimulated HaCaT keratinocyte cells) [nM]	IC50 [1, 2] [nM]	EC50 (STAT6; [3]) [nM]	Compound
–	–	19	5	CCc1nc(C(=O)NCc2ccc(NC(=O)N(C)C)cc2)c2n1C(C)CN(c1ccc(C(=O)N(C)C)cn1)C2 (racemic) [Example 205, rac-(R)-7-(5-(dimethylcarbamoyl)pyridin-2-yl)-N-(4-(3,3-dimethylureido)benzyl)-3-ethyl-5-methyl-5,6,7,8-tetrahydroimidazo[1,5-a]pyrazine-1-carboxamide]
–	–	10	1	CCC1CN(c2ccc(C(=O)N(C)C)cn2)Cc2c(C(=O)NCc3ccc(NC(=O)N(C)C)cc3)nn(C(C)C)c21 (racemic) [Example 246, rac-(R)-5-(5-(dimethylcarbamoyl)pyridin-2-yl)-N-(4-(3,3-dimethylureido)benzyl)-7-ethyl-1-isopropyl-4,5,6,7-tetrahydro-1H-pyrazolo[4,3-c]pyridine-3-carboxamide]
–	–	31	6	CCC1Cc2c(c(C(=O)NCc3ccc(NC(=O)N(C)C)cc3)nn2C(C)C)CN1c1ccc(C(=O)N(C)C)cn1 (racemic) [Example 249, rac-(R)-5-(5-(dimethylcarbamoyl)pyridin-2-yl)-N-(4-(3,3-dimethylureido)benzyl)-6-ethyl-1-isopropyl-4,5,6,7-tetrahydro-1H-pyrazolo[4,3-c]pyridine-3-carboxamide]
–	–	48	3	CC(C)n1nc(C(=O)NCc2ccc(NC(=O)N(C)C)cc2)c2c1CC(C(F)(F)F)N(c1ccc(C(=O)N(C)C)cn1)C2 (racemic) [Example 255, rac-(R)-5-(5-(dimethylcarbamoyl)pyridin-2-yl)-N-(4-(3,3-dimethylureido)benzyl)-1-isopropyl-6-(trifluoromethyl)-4,5,6,7-tetrahydro-1H-pyrazolo[4,3-c]pyridine-3-carboxamide]
–	–	64	10	CCC1Cc2c(c(C(=O)NCc3ccc(NC(=O)N(C)C)cc3)nn2C)CN1c1ccc(C(=O)N(C)C)cn1 (racemic) [Example 260, rac-(R)-5-(5-(dimethylcarbamoyl)pyridin-2-yl)-N-(4-(3,3-dimethylureido)benzyl)-6-ethyl-1-methyl-4,5,6,7-tetrahydro-1H-pyrazolo[4,3-c]pyridine-3-carboxamide]
–	–	37	5	CC(C)C1CN(c2ccc(C(=O)N(C)C)cn2)Cc2c(C(=O)NCc3ccc(NC(=O)N(C)C)cc3)nn(C)c21 (racemic) [Example 265, rac-(R)-5-(5-(dimethylcarbamoyl)pyridin-2-yl)-N-(4-(3,3-dimethylureido)benzyl)-7-isopropyl-1-methyl-4,5,6,7-tetrahydro-1H-pyrazolo[4,3-c]pyridine-3-carboxamide]
–	–	9	1	CCn1nc(C(=O)NCc2ccc(NC(=O)N(C)C)cc2)c2c1C(C(F)(F)F)CN(c1ccc(C(=O)N(C)C)cn1)C2 (racemic) [Example 282, rac-(R)-5-(5-(dimethylcarbamoyl)pyridin-2-yl)-N-(4-(3,3-dimethylureido)benzyl)-1-ethyl-7-(trifluoromethyl)-4,5,6,7-tetrahydro-1H-pyrazolo[4,3-c]pyridine-3-carboxamide]
–	–	22	3	CC1CN(c2ccc(C(=O)N(C)C)cn2)Cc2c(C(=O)NCc3ccc(NC(=O)N(C)C)cc3)nn(C3COC3)c21 (racemic) [Example 321, rac-(R)-5-(5-(dimethylcarbamoyl)pyridin-2-yl)-N-(4-(3,3-dimethylureido)benzyl)-7-methyl-1-(oxetan-3-yl)-4,5,6,7-tetrahydro-1H-pyrazolo[4,3-c]pyridine-3-carboxamide]
–	–	9	2	CCc1nc(C(=O)NCc2ccc(NC(=O)N(C)C)cc2)c2n1C(C)CN(c1ccc(C(=O)N(C)C)cc1)C2 (racemic) [Example 399, rac-(R)-7-(4-(dimethylcarbamoyl)phenyl)-N-(4-(3,3-dimethylureido)benzyl)-3-ethyl-5-methyl-5,6,7,8-tetrahydroimidazo[1,5-a]lpyrazine-1-carboxamide]
